Experimental data reported in patent publication US20050037446A1, “Agents that recognize src when phosphorylated at serine 17” (priority 2001, published 2005).

Key:
Rap1 = Rap1 activation affinity assay, Hek293 cells; assay type: cell-based; settings: 10 μM; for Effect of inhibitor on isoproterenol's activation of endogenous Rap1: 20 minutes
Experimental: The Rap1 activation affinity assay was performed as follows. A GST fusion protein of the Rap1-binding domain of RalGDS (GST-RalGDS, Dr. Bos, Utrecht University, The Netherlands) was expressed in E. coli following induction by isopropyl-1thio-β-D-galactopyranoside. Active Rap1 was isolated as previously described (Franke et al., EMBO J. 16:252-9, 1997). Briefly, equivalent amounts of supernatants (500 μg) were incubated with GST-RalGDS-Rap1 binding domain coupled to glutathione beads. Following a one hour incubation at 4° C., beads were pelleted and rinsed threes times with ice-cold lysis buffer. The protein was eluted from the beads using 2× Laemmli buffer and applied to a 12% SDS-polyacrylamide gel. Proteins were tansferred to PVDF membrane (Millipore Corporation, Bedford, Mass.), blocked in 5% milk for one hour and, probed with either α-Rap1/Krev-1 (Santa Cruz Biotechnology Inc., Santa Cruz, Calif.) or Flag antibody (Sigma, St Louis, Mo.) overnight at 4° C., followed by an HRP-conjugated anti-rabbit secondary antibody (or anti-mouse secondary for anti-Flag western blots). Proteins were detected using enhanced chemiluminescence.
Hek293 cells (ATCC) were cultured in DMEM plus 10% fetal calf serum, penicillin/streptomycin, and L-glutamine at 37° C. in 5% CO2. Cells were maintained in serum-free DMEM for 16 hours at 37° C. in 5% CO2 prior to treatment with H89 (10 μM) or PP2 (10 μM) for 20 minutes, and then treated with isoproterenol (10 μM) for 5 minutes. Cell lysates were prepared, and a Rap1 activation affinity assay performed as described in Example 1. […] This activation required Src family kinases (SFKs) as it was blocked by the inhibitor PP2.
The mechanism of ERK activation by isoproterenol in Hek293 cells was determined as follows. Hek293 cells were transfected with Flag-Rap1 along with pcDNA3, SrcS17A, SrcS17D, or SrcWT as described above. […]

Cb1 = Cb1 tyrosine phosphorylation (immunoprecipitation/Western blot), NIH3T3 cells; assay type: cell-based; settings: 10 μM, 20 minutes
Experimental: To determine the role of C3G and its complex in Rap1 activation, NIH3T3 cells were grown and treated for 20 minutes in the presence or absence of H89 (10 μM) or PP2 [AG1879; 4-amino-5-(4-chlorophenyl)-7-(t-butyl)pyazolo[3,4-d]pyrimidine, LY294002 [2-(4-Morpholinyl)-8-phenyl-4H-1-bemzopyran-4-one] (10 μM, Cal Biochem), treated with Forskolin (10 μM, Cal Biochem) for five minutes, and cell lysates prepared, as described above. Endogenous Cb1 was immunoprecipitated using a Cb1 antibody (Santa Cruz Biotechnology Inc.) from cell lysates and analyzed by Western blot for tyrosine phosphorylation, using a pTyr antibody (Santa Cruz Biotechnology Inc.) as described above. Briefly, for immunoprecipitation of Cb1, equal amounts of cell lysate per condition were precipitated at 4° C. for 4 to 6 hours in lysis buffer. Proteins were resolved by SDS-PAGE, blotted onto PVDF membranes and probed with the appropriate antibodies. All Western blots and immunoprecipitations were performed at least three times.

Row | SMILES | Effect of inhibitor on isoproterenol's activation of endogenous Rap1 (Rap1) | Effect on Forskolin-stimulated Cb1 tyrosine phosphorylation (Cb1) | Activation of endogenous Rap1 (Rap1; 5 minutes)
1 | O=S(=O)(NCCNC/C=C/c1ccc(Br)cc1)c1cccc2cnccc12 [H89, N-[2(Bromocimamylamino)ethyl]-5-isoquinolinesulfonamide] | PKA-dependent | inhibited | –
2 | CC(C)(C)n1nc(-c2ccc(Cl)cc2)c2c(N)ncnc21 [PP2, 4-amino-5-(4-chlorophenyl)-7-(t-butyl)pyazolo[3,4-d]pyrimidine] | blocked | inhibited | –
3 | CC(C)NCC(O)c1ccc(O)c(O)c1 (centres unmarked) [isoproterenol] | – | – | activated endogenous Rap1
